Measurements from US5206247A, “Spiro(4.5.)decane compounds” (Adir Et Compagnie, priority 1990, dated 1993).

Experiments:
human LDLs [1] = experiment: Modification of the LDLs by endothelial cells (MDA formation); type: cell-based; details: for ability to protect human LDLs compared with probucol or vitamin E, endothelial cells: modifications induced by endothelial cells; for IC50: oxidation by rabbit aorta endothelial cells, 24 hours, read-out: IC50 EC (inhibition of lipid peroxidation of human LDLs, MDA production); for times more powerful than probucol (endothelial cells): test using endothelial cells
Protocol: Human LDLs are incubated for 24 hours in the presence of rabbit aorta endothelial cells (line RECL B4 supplied by Professor Steinberg, USA) and in the absence or presence of the test compounds (10^-7 M to 10^-4 M).
After incubation, the peroxidation of the LDLs is evaluated by electrophoresis on agar gel and by the formation of one of the products of lipid peroxidation: malonic dialdehyde (MDA) (Steinbrecher U.P., Parthasarathy S, Leake D. S., Witztum J. L., and Steinberg D., Proc. Nat. Acad. Sci. USA 81. 3883-3887, 1984).
The activity of the test compounds is evaluated by calculating the concentrations that reduce the production of MDA by 50% (IC50) compared with the control experiments carried out in the absence of test compound.
(§1) Table A lists the IC50 values, which indicate the capacity to inhibit the lipid peroxidation of human LDLs, obtained with a sample of the compounds of the invention and of the reference compounds probucol and vitamin E, in two tests causing the development of the oxidation of the LDLs: by copper sulphate (Cu^2+) or by endothelial cells (EC).

human LDLs [2] = experiment: Modification of the LDLs by copper sulphate (MDA formation); type: biochemical; details: for ability to protect human LDLs compared with probucol or vitamin E, copper sulphate: modifications induced by copper sulphate; for IC50: oxidation by copper sulphate, 24 hours, read-out: IC50 Cu^2+ (inhibition of lipid peroxidation of human LDLs, MDA production)
Protocol: Human LDLs are incubated for 24 hours in the presence of copper sulphate (5×10^-5 M or 5×10^-6 M) and in the absence or presence of the test compounds (10^-7 M to 10^-4 M).
After incubation, the peroxidation of the LDLs is evaluated by electrophoresis on agar gel and by the formation of one of the products of lipid peroxidation: malonic dialdehyde (MDA) (Parthasarathy S., Young S. G., Witztum J. L., Pittman R. C., and Steinberg D.; J. Clin. Invest. 77, 641-644, 1986).
The activity of the test compounds is evaluated by calculating the concentrations that reduce the production of MDA by 50% (IC50) compared with control experiments carried out in the absence of test compound.
as §1

[3] = test system: LDLs of the Watanabe rabbits; experiment: Ex vivo copper sulphate oxidation of LDLs from orally treated Watanabe rabbits (MDA production); type: in vivo; details: for MDA production: 3 days; for dose from which peroxidation of the LDLs is inhibited: oral, peroxidation induced by copper sulphate
Protocol: Watanabe rabbits ([…] hyperlipidaemic rabbits) are used that range in weight from 3 kg to 5 kg. The animals are treated orally with the carrier of the test compounds (control group) or with the test compounds at doses of 10, 50 and 250 mg/kg/day for 3 days.
When the treatment is complete, the LDLs of the animals are prepared by ultracentrifugation and subjected to oxidation with copper sulphate (5×10^-6 M). The lipid peroxidation of the LDLs is evaluated after various periods of incubation with copper sulphate (from 2 to 24 hours) by measuring the formation of MDA.
Table C lists the MDA production values according to the incubation period with copper sulphate of those LDLs originating from the control animals and those originating from the animals treated with the compounds of Examples 1, 3 and 31 at different doses or with probucol.

cardiac cells = experiment: Oxidative necrosis of cardiac cells induced by hypoxanthine/xanthine oxidase; type: cell-based, new-born rats; details: for activity at 10 µM / inhibition at 10 µM: 10^-5 M; for activity at 10 µM / activity at 1 µM / activity at 0.1 µM: control = 100, means ± sem, read-out: index of necrosis of cardiac cells; for activity at 1 µM / inhibition at 1 µM: 10^-6 M; for activity at 0.1 µM: 10^-7 M; for effect on oxidative necrosis of cardiac cells compared with reference compounds: 10^-6 M and 10^-5 M; for inhibition at 10 µM / inhibition at 1 µM: Cardiomyocyte, read-out: reduction of oxidative necrosis of cardiomyocytes
Protocol: Cardiac cells of new-born rats are used between the 5th and 6th days after placing in a culture. Oxidative necrosis is induced by the enzymatic system hypoxanthine (HX, 1 mM) and xanthine oxidase (XO, 10 mU/ml), which produces free radicals. The necrosis is evaluated 4 hours after the addition of XO/HX by the spectrophotometric measurement of the cytosolic α-hydroxybutyrate dehydrogenase (α-HBDH) activity liberated in the supernatant. Two reference molecules (probucol, vitamin E) and 3 molecules representative of the present invention (corresponding to Examples 1, 3 and 4) were tested. The cells are treated with the molecules 16 hours and 1 hour before the beginning of the experiment after renewing the medium. At the beginning of the experiment, the treatment is carried out one last time.
Table B lists the indices of the necrosis of cardiac cells induced by the system hypoxanthine/xanthine oxidase on its own or in the presence of increasing concentrations of the compounds of the invention or of the reference compounds: probucol and vitamin E.
The necrosis index 100 corresponds to a liberation of 43.6±1.0% in 4 hours of the cytosolic content of α-HBDH in the supernatant.
The results are expressed in the form of means ± sem (4≤n≤5, 3 repetitions per experiment).

[4] = 250 mg/kg/day oral, 2 hours incubation with copper sulphate
[5] = 250 mg/kg/day oral, 4 hours incubation with copper sulphate
[6] = 250 mg/kg/day oral, 6 hours incubation with copper sulphate
[7] = 250 mg/kg/day oral, 8 hours incubation with copper sulphate
[8] = 250 mg/kg/day oral, 24 hours incubation with copper sulphate

IC50 (human LDLs [1]) [nM] | IC50 (human LDLs [2]) [nM] | SMILES | ability to protect human LDLs compared with probucol or vitamin E, endothelial cells (human LDLs [1]) | ability to protect human LDLs compared with probucol or vitamin E, copper sulphate (human LDLs [2]) | MDA production [3, 4] [nM/mg proteins] | MDA production [3, 5] [nM/mg proteins] | MDA production [3, 6] [nM/mg proteins] | MDA production [3, 7] [nM/mg proteins] | MDA production [3, 8] [nM/mg proteins] | dose from which peroxidation of the LDLs is inhibited [3] [mg/kg/day] | activity at 10 µM (cardiac cells; Rattus norvegicus, 4 h) [%] | activity at 1 µM (cardiac cells; Rattus norvegicus, 4 h) [%] | activity at 0.1 µM (cardiac cells; Rattus norvegicus, 4 h) [%] | times more powerful than probucol (endothelial cells) (human LDLs [1]) [times] | effect on oxidative necrosis of cardiac cells compared with reference compounds (cardiac cells) | inhibition at 10 µM (cardiac cells; Rattus norvegicus, 4 h) [%] | inhibition at 1 µM (cardiac cells; Rattus norvegicus, 4 h) [%] | other results
800 | 700 | CC(C)(C)c1cc(OCCCCCN2CCC3(CC2)CNC(=O)O3)cc(C(C)(C)C)c1O [Example 5] | greater ability | greater ability |  |  |  |  |  |  |  |  |  |  |  |  |  | 
300 | 300 | CC(C)(C)c1cc(OCCCN2CCC3(CC2)CNC(=O)O3)cc(C(C)(C)C)c1O [Example 6] | greater ability | greater ability |  |  |  |  |  |  |  |  |  |  |  |  |  | 

More lines, now with the values behind:

SMILES | IC50 (human LDLs [1]) [nM] | IC50 (human LDLs [2]) [nM] | ability to protect human LDLs compared with probucol or vitamin E, endothelial cells (human LDLs [1]) | ability to protect human LDLs compared with probucol or vitamin E, copper sulphate (human LDLs [2]) | MDA production [3, 4] [nM/mg proteins] | MDA production [3, 5] [nM/mg proteins] | MDA production [3, 6] [nM/mg proteins] | MDA production [3, 7] [nM/mg proteins] | MDA production [3, 8] [nM/mg proteins] | dose from which peroxidation of the LDLs is inhibited [3] [mg/kg/day] | activity at 10 µM (cardiac cells; Rattus norvegicus, 4 h) [%] | activity at 1 µM (cardiac cells; Rattus norvegicus, 4 h) [%] | activity at 0.1 µM (cardiac cells; Rattus norvegicus, 4 h) [%] | times more powerful than probucol (endothelial cells) (human LDLs [1]) [times] | effect on oxidative necrosis of cardiac cells compared with reference compounds (cardiac cells) | inhibition at 10 µM (cardiac cells; Rattus norvegicus, 4 h) [%] | inhibition at 1 µM (cardiac cells; Rattus norvegicus, 4 h) [%] | other results
CC(C)(CCN1CCC2(CC1)CNC(=O)O2)Sc1cc(C(C)(C)C)c(O)c(C(C)(C)C)c1 [Example 31] | 20 | 800 | greater ability | greater ability | 0.19 | 0.51 | 0.16 | 0.71 | 0.99 | ≥ 50 |  |  |  |  |  |  |  | MDA production ([3]; 50 mg/kg/day oral, 2 hours incubation with copper sulphate): 0.33 nM/mg proteins; MDA production ([3]; 50 mg/kg/day oral, 4 hours incubation with copper sulphate): 0.72 nM/mg proteins; MDA production ([3]; 50 mg/kg/day oral, 6 hours incubation with copper sulphate): 1.03 nM/mg proteins; MDA production ([3]; 50 mg/kg/day oral, 8 hours incubation with copper sulphate): 1.04 nM/mg proteins; MDA production ([3]; 50 mg/kg/day oral, 24 hours incubation with copper sulphate): 3.16 nM/mg proteins
CC(C)(Sc1cc(C(C)(C)C)c(O)c(C(C)(C)C)c1)Sc1cc(C(C)(C)C)c(O)c(C(C)(C)C)c1 [probucol, reference compound] | 4000 | 3000 |  |  | 1.85 | 3.50 | 4.90 | 12.26 | 23.81 |  | 26.6 ± 6.3 | 68.8 ± 3.9 | 103 ± 2 |  |  |  |  | retardation of peroxidation of the LDLs compared with control animals ([3]; oral treatment of Watanabe rabbits): approximately 2 hours
CC(C)(C)c1cc(SCC(O)CN2CCC3(CC2)CNC(=O)O3)cc(C(C)(C)C)c1O (racemic) [Example 1, (R,S)-8-[3-(3,5-di-tert.-butyl-4-hydroxyphenylthio)-2-hydroxypropyl]-1-oxa-2-oxo-3,8-diazaspiro[4.5]decane] |  |  | greater ability | greater ability | 0.2 | 1.27 | 0 | 0 | 1.02 | ≥ 50 | 3.8 ± 1.9 | 19.1 ± 7.3 | 42.8 ± 11.3 | 100 | distinctly superior to the reference compounds | > 95 | > 80 | inhibition at 0.1 µM (cardiac cells; Rattus norvegicus, 4 h, starting from 10^-7 M, read-out: protective effect on oxidative necrosis of cardiac cells): > 50%
CC(C)(C)c1cc(SCCCCCN2CCC3(CC2)CNC(=O)O3)cc(C(C)(C)C)c1O [Example 4] | 20 | 800 | greater ability | greater ability |  |  |  |  |  |  | 2.6 ± 0.7 | 2.1 ± 1 | 79.1 ± 8 | 100 | distinctly superior to the reference compounds | > 95 | > 80 | 
